Values of other authors, collected in patent US20070238696A1, “Dosage unit for cardioprotection” (priority 2000, published 2007).

Conditions: men, median intake 419 IU/day compared to median intake 6 IU/day; followed for four years

In the case of vitamin E, the relative risk reduction is given as 44%.
